# Results reported in PubChem BioAssay (NCI).
#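 Five concentrations, 48 hours, 96-well plates. GI50: concentration for 50% inhibition of growth. TGI denotes the concentration required for complete inhibition of growth.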
# Legend:
# Assay in all cases: DTP human tumour cell line panel, 48 h
# SNB-75 CNS = tested on: SNB-75 CNS
# OVCAR-3 ovarian = tested on: OVCAR-3 ovarian
# NCI-H226 lung = tested on: NCI-H226 lung
# NCI-H23 lung = tested on: NCI-H23 lung
# SK-MEL-5 melanoma = tested on: SK-MEL-5 melanoma
# UO-31 renal = tested on: UO-31 renal
# NCI/ADR-RES ovarian = tested on: NCI/ADR-RES ovarian
# SF-539 CNS = tested on: SF-539 CNS
# BT-549 breast = tested on: BT-549 breast
# UACC-257 melanoma = tested on: UACC-257 melanoma
# DU-145 prostate = tested on: DU-145 prostate
# ACHN renal = tested on: ACHN renal
# HCT-15 colon = tested on: HCT-15 colon
# SR leukemia = tested on: SR leukemia
# OVCAR-5 ovarian = tested on: OVCAR-5 ovarian
# SF-295 CNS = tested on: SF-295 CNS
# NCI-H460 lung = tested on: NCI-H460 lung
# UACC-62 melanoma = tested on: UACC-62 melanoma
# SK-MEL-2 melanoma = tested on: SK-MEL-2 melanoma
# MCF7 breast = tested on: MCF7 breast
# SW-620 colon = tested on: SW-620 colon
# LOX IMVI melanoma = tested on: LOX IMVI melanoma
# HL-60(TB) leukemia = tested on: HL-60(TB) leukemia
# EKVX NSCLC = tested on: EKVX NSCLC
# A498 renal = tested on: A498 renal
# OVCAR-8 ovarian = tested on: OVCAR-8 ovarian
# MOLT-4 leukemia = tested on: MOLT-4 leukemia
# SF-268 CNS = tested on: SF-268 CNS
# HOP-62 NSCLC = tested on: HOP-62 NSCLC
# MALME-3M melanoma = tested on: MALME-3M melanoma
# NCI-H522 lung = tested on: NCI-H522 lung
# SK-MEL-28 melanoma = tested on: SK-MEL-28 melanoma
# SK-OV-3 ovarian = tested on: SK-OV-3 ovarian
# RPMI-8226 leukemia = tested on: RPMI-8226 leukemia
# HOP-92 NSCLC = tested on: HOP-92 NSCLC
# MDA-MB-231 breast = tested on: MDA-MB-231 breast
# KM12 colon = tested on: KM12 colon
# COLO 205 colon = tested on: COLO 205 colon
# T-47D breast = tested on: T-47D breast
# MDA-MB-435 = tested on: MDA-MB-435
# TK-10 renal = tested on: TK-10 renal
# A549 NSCLC = tested on: A549 NSCLC
# OVCAR-4 ovarian = tested on: OVCAR-4 ovarian
# PC-3 prostate = tested on: PC-3 prostate
# CCRF-CEM leukemia = tested on: CCRF-CEM leukemia
# SNB-19 CNS = tested on: SNB-19 CNS
# SN12C renal = tested on: SN12C renal
# U251 CNS = tested on: U251 CNS
# IGROV1 ovarian = tested on: IGROV1 ovarian
# HCC-2998 colon = tested on: HCC-2998 colon
# HT29 colon = tested on: HT29 colon
# M14 melanoma = tested on: M14 melanoma
# HCT-116 colon = tested on: HCT-116 colon
# 786-0 renal = tested on: 786-0 renal
# CAKI-1 renal = tested on: CAKI-1 renal
# HS 578T breast = tested on: HS 578T breast
compound,measurement,setting,value
C=C1C(=O)O[C@H]2[C@H]1CC/C(COC(=O)NCc1ccc(Cn3c(=O)sn(-c4ccc(OC)cc4)c3=O)cc1)=C\CC[C@@]1(C)O[C@@H]21,GI50,SNB-75 CNS,3.44 µM
same,TGI,SNB-75 CNS,15.3 µM
same,GI50,OVCAR-3 ovarian,1.61 µM
same,TGI,OVCAR-3 ovarian,3.04 µM
same,GI50,NCI-H226 lung,12.9 µM
same,TGI,NCI-H226 lung,30.7 µM
same,GI50,NCI-H23 lung,2.97 µM
same,TGI,NCI-H23 lung,9.9 µM
same,GI50,SK-MEL-5 melanoma,12 µM
same,TGI,SK-MEL-5 melanoma,24.8 µM
same,GI50,UO-31 renal,1.56 µM
same,TGI,UO-31 renal,2.94 µM
same,GI50,NCI/ADR-RES ovarian,12.3 µM
same,TGI,NCI/ADR-RES ovarian,28.8 µM
same,GI50,SF-539 CNS,1.96 µM
same,TGI,SF-539 CNS,4.15 µM
same,GI50,BT-549 breast,4.37 µM
same,TGI,BT-549 breast,16.3 µM
same,GI50,UACC-257 melanoma,2.03 µM
same,TGI,UACC-257 melanoma,4.34 µM
same,GI50,DU-145 prostate,1.81 µM
same,TGI,DU-145 prostate,3.21 µM
same,GI50,ACHN renal,1.73 µM
same,TGI,ACHN renal,3.27 µM
same,GI50,HCT-15 colon,1.68 µM
same,TGI,HCT-15 colon,3.36 µM
same,GI50,SR leukemia,0.535 µM
same,TGI,SR leukemia,5.2 µM
same,GI50,OVCAR-5 ovarian,2.06 µM
same,TGI,OVCAR-5 ovarian,4.81 µM
same,GI50,SF-295 CNS,15 µM
same,TGI,SF-295 CNS,28.9 µM
same,GI50,NCI-H460 lung,3.7 µM
same,TGI,NCI-H460 lung,13.5 µM
same,GI50,UACC-62 melanoma,1.86 µM
same,TGI,UACC-62 melanoma,3.84 µM
same,GI50,SK-MEL-2 melanoma,3.19 µM
same,TGI,SK-MEL-2 melanoma,9.46 µM
same,GI50,MCF7 breast,1.77 µM
same,TGI,MCF7 breast,3.63 µM
same,GI50,SW-620 colon,1.77 µM
same,TGI,SW-620 colon,3.61 µM
same,GI50,LOX IMVI melanoma,1.73 µM
same,TGI,LOX IMVI melanoma,3.12 µM
same,GI50,HL-60(TB) leukemia,2.12 µM
same,TGI,HL-60(TB) leukemia,5.48 µM
same,GI50,EKVX NSCLC,3.5 µM
same,TGI,EKVX NSCLC,14.6 µM
same,GI50,A498 renal,5.65 µM
same,TGI,A498 renal,17.8 µM
same,GI50,OVCAR-8 ovarian,2.37 µM
same,TGI,OVCAR-8 ovarian,5.82 µM
same,GI50,MOLT-4 leukemia,1.93 µM
same,TGI,MOLT-4 leukemia,5.95 µM
same,GI50,SF-268 CNS,3.14 µM
same,TGI,SF-268 CNS,9.86 µM
same,GI50,HOP-62 NSCLC,13.2 µM
same,TGI,HOP-62 NSCLC,26.9 µM
same,GI50,MALME-3M melanoma,1.81 µM
same,TGI,MALME-3M melanoma,3.76 µM
same,GI50,NCI-H522 lung,1.67 µM
same,TGI,NCI-H522 lung,3.1 µM
same,GI50,SK-MEL-28 melanoma,1.97 µM
same,TGI,SK-MEL-28 melanoma,4.1 µM
same,GI50,SK-OV-3 ovarian,14.4 µM
same,TGI,SK-OV-3 ovarian,27.4 µM
same,GI50,RPMI-8226 leukemia,2.01 µM
same,TGI,RPMI-8226 leukemia,4.52 µM
same,GI50,HOP-92 NSCLC,1.61 µM
same,TGI,HOP-92 NSCLC,3.47 µM
same,GI50,MDA-MB-231 breast,1.97 µM
same,TGI,MDA-MB-231 breast,4.11 µM
same,GI50,KM12 colon,3.75 µM
same,TGI,KM12 colon,14 µM
same,GI50,COLO 205 colon,1.85 µM
same,TGI,COLO 205 colon,3.38 µM
same,GI50,T-47D breast,1.86 µM
same,TGI,T-47D breast,4.53 µM
same,GI50,MDA-MB-435,1.83 µM
same,TGI,MDA-MB-435,3.84 µM
same,GI50,TK-10 renal,1.91 µM
same,TGI,TK-10 renal,3.49 µM
same,GI50,A549 NSCLC,15.2 µM
same,TGI,A549 NSCLC,29.1 µM
same,GI50,OVCAR-4 ovarian,1.64 µM
same,TGI,OVCAR-4 ovarian,3.98 µM
same,GI50,PC-3 prostate,2.19 µM
same,TGI,PC-3 prostate,5.27 µM
same,GI50,CCRF-CEM leukemia,0.561 µM
same,TGI,CCRF-CEM leukemia,3.05 µM
same,GI50,SNB-19 CNS,11.7 µM
same,TGI,SNB-19 CNS,24.6 µM
same,GI50,SN12C renal,2.14 µM
same,TGI,SN12C renal,4.96 µM
same,GI50,U251 CNS,4.11 µM
same,TGI,U251 CNS,13.9 µM
same,GI50,IGROV1 ovarian,2.85 µM
same,TGI,IGROV1 ovarian,8.04 µM
same,GI50,HCC-2998 colon,10.4 µM
same,TGI,HCC-2998 colon,25.5 µM
same,GI50,HT29 colon,1.96 µM
same,TGI,HT29 colon,3.51 µM
same,GI50,M14 melanoma,2.19 µM
same,TGI,M14 melanoma,5.65 µM
same,GI50,HCT-116 colon,1.93 µM
same,TGI,HCT-116 colon,3.78 µM
same,GI50,786-0 renal,2.05 µM
same,TGI,786-0 renal,4.51 µM
same,GI50,CAKI-1 renal,2.34 µM
same,TGI,CAKI-1 renal,6.83 µM
same,GI50,HS 578T breast,2.92 µM
same,TGI,HS 578T breast,14.2 µM
